Source: patent US4021564A, “Neuroleptic piperidine compounds” (AB Ferrosan, priority 1975, dated 1977)

How the values were obtained:
mice = assay: Inhibition of Exploratory Behavior (Climbing) in mice; assay type: in vivo; settings: Mus musculus, sc, 1 hr.
From the text: (a) Inhibition of climbing in mice (inhibition of exploratory behavior). These tests have been described, and the importance of coordinating the compounds with these tests and the activities shown thereby is described in detail in the following literature: (a) Inhibition of Exploratory Behavior (Climbing) van Rossum, J.M., et al., in The Neuroleptics, Modern Problems of Pharmaco-[…], Vol. 5, […]., in Arch. Int. Pharmacodyn 126, 238 (1960). Sandberg, S., in Arzneimittelforschung 9, 203 (1958).

rats = assay: Inhibition of Conditioned Avoidance Response in rats; assay type: in vivo; settings: Rattus norvegicus, sc, 1.5 hrs.
From the text: (b) Inhibition of conditioned behavior in rats. These tests have been described, and the importance of coordinating the compounds with these tests and the activities shown thereby is described in detail in the following literature: (b) Inhibition of Conditioned Avoidance Response "Neuroleptics characteristically interrupt the response to the warning stimulus (avoidance) without at the same time interrupting the response to the noxious stimulus (escape) which follows it." An introduction to Psycho-Pharmacology, Eds. Rech and Moore, New York, p. 264 (1971); Courvoisier, S., et al., in Arch. Int. Pharmacodyn. 92, 305 (1953); Jacobsen, E., in Psychotrophic Drugs, […], Amsterdam, p. 119 (1957). Jacobsen and Sonne, in Acta Pharmacol. et Toxicol. 11, pp. 135-147 (1955).

Acute Toxicity in Mice = settings: mouse, in vivo

Row | SMILES | ED50 (mice) [mg/kg] | ED50 (rats) [mg/kg] | LD50 at 48 h (Acute Toxicity in Mice; po) [mg/kg] | LD50 at 48 h (Acute Toxicity in Mice; sc) [mg/kg]
1 | Cc1ccc(C(=O)C2(O)CCN(CCCC(=O)c3ccc(F)cc3)CC2)cc1 [CH3, 1-[3-(p-fluorobenzoyl)propyl]-4-(p-methylbenzoyl)-4-hydroxypiperidine] | 0.8 | 0.32 | > 1000 | > 1000
2 | COc1ccc(C(=O)C2(O)CCN(CCCC(=O)c3ccc(F)cc3)CC2)cc1 [OCH3, 1-[3-(p-fluorobenzoyl)propyl]-4-(p-methoxybenzoyl)-4-hydroxypiperidine] | 1 | 0.24 | 890 | > 1000
3 | O=C(CCCN1CCC(O)(C(=O)c2ccc(Cl)cc2)CC1)c1ccc(F)cc1 [Cl, 1-[3-(p-fluorobenzoyl)propyl]-4-(p-chlorobenzoyl)-4-hydroxypiperidine] | 0.95 | 0.37 | 630 | > 1000
4 | Cl.O=C(CCCN1CCC(O)(C(=O)c2ccc(F)cc2)CC1)c1ccc(F)cc1 [F, 1-[3-(p-fluorobenzoyl)propyl]-4-(p-fluorobenzoyl)-4-hydroxypiperidine hydrochloride] | 0.19 | 0.13 | 500 | > 1000
